These are literature values, as cited in patent publication US20210000980A1, “METHOD AND COMPOSITION FOR THE DETECTION OF ARTHROPODS” (ARKE' S.r.l., priority 2018, published 2021).

The structures appear in SMILES notation.

The series concerns lice. The conditions noted are these: 10% formic acid solution in water.

For the molecule `O=CO` [formic acid], the lice removed is on record as at most 94%.
